The results in this text go back to patent US20220235049A1, “SUBSTITUTED PYRROLO [2, 3-b] PYRIDINE AND PYRAZOLO [3,4-b] PYRIDINE DERIVATIVES AS PROTEIN KINASE INHIBITORS” (Fochon Pharmaceuticals, Ltd., priority 2019, published 2022).

Each structure is given as a SMILES string. pIC50: −log10 of the molar value. Where two headings read alike, the source gives them in different places.

Data set [1] can be described thus: Pharmacokinetics in male Sprague-Dawley rats. It counts as in vivo. Particulars: rat; for AUC(0-inf) / AUC(0-t) / clearance / half-life / Cmax / MRT last / Vd / Tmax: male, Sprague-Dawley, plasma; for Cmax: read-out: Cmax/C0; for MRT last: read-out: MRT0-t; for Vd: read-out: Vdss. The procedure: The purpose of this study was to determine the pharmacokinetics of Example 71 and Example 75 in male Sprague-Dawley rats (Supplied by Beijing Vital River Laboratory Animal Technology Co., Ltd.).
Animals in Group 1 were administered with Example 71 by single intravenous bolus injection at 1 mg/kg, which was formulated in 60% Phosal 50 PG (Lipoid, Batch #368315-3180028/009): 30% PEG400 (Sigma, Batch #MKCH6281): 10% Ethanol (Merck, Batch #K48244883634) at 1 mg/mL as a solution. Animals in Group 2 were administered with Example 71 by single oral gavage (PO) administration at 5 mg/kg, which was formulated in 60% Phosal 50 PG (Lipoid, Batch #368315-3180028/009): 30% PEG400 (Sigma, Batch #MKCH6281): 10% Ethanol (Merck, Batch #K48244883634) at 1 mg/mL as a solution. Blood samples were collected at 0.083, 0.25, 0.5, 1, 2, 4, 8, 12 and 24 hours post-dose. Concentrations of Example 71 in plasma were determined by LC/MS/MS (LC: Waters UPLC; MS: API4000).
Animals in Group 3 were administered with Example 75 by single intravenous bolus injection at 2 mg/kg, which was formulated in 10% DMSO (Sigma, Batch #LPC0S181): 60% PEG400 (Sigma, Batch #MKCH6281): 30% water at 2 mg/mL as a solution. Animals in Group 4 were administered with Example 75 by single oral gavage (PO) administration at 10 mg/kg, which was formulated in 10% DMSO (Sigma, Batch #LPC0S181): 60% PEG400 (Sigma, Batch #MKCH6281): 30% water at 2 mg/mL as a solution. Blood samples were collected at 0.083, 0.25, 0.5, 1, 2, 4, 8, 12 and 24 hours post-dose. Concentrations of Example 75 in plasma were determined by LC/MS/MS (LC: Waters UPLC; MS: Triple Quad 6500 plus).

In a further data set the test system is DOHH2 cells. The data set can be described thus: Cell proliferation assay in DOHH2 cells (MTS). It counts as cell-based. Particulars: Homo sapiens, DOHH-2, 120 h. In a few lines: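 DOHH2 cells at 5000/well were treated with compound at 1.5–10000 nM for 120 h at 37 °C, as a proxy for BTK inhibition. Proliferation was read by MTS for 2 h, stopped with SDS, and absorbance measured at 490 nm with 650 nm reference; IC50 was fitted from the curve.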

The target of the next data set is T1, BTK (C481S) (Homo sapiens, UniProt Q06187, C481S).
T1 construct: purchased SignalChem B10-12CH
The data set can be described thus: Kinase assay of BTK (C481S), [33P]-ATP filter-binding, at Reaction Biology Corporation. It counts as biochemical. The note with it: 10 μM ATP, 20 min preincubation, 120 min reaction. Here is the method: The kinase activity of BTK (C481S) was assayed at Reaction Biology Corporation. The substrate in the BTK (C481S) reaction, pEY (poly[Glu:Tyr] (4:1)) (Sigma, Cat. #P7244-250MG), was prepared in fresh reaction buffer (20 mM Hepes (pH 7.5), 10 mM MgCl2, 1 mM EGTA, 0.02% Brij35, 0.02 mg/ml BSA, 0.1 mM Na3VO4, 2 mM DTT, 1% DMSO). BTK(C481S) (SignalChem, Cat. #B10-12CH) was delivered into the substrate solution and mixed gently. The final concentrations of BTK (C481S) and the substrate in the reaction mixture were 6 nM and 0.2 mg/ml, respectively. Compounds were tested in 10-point concentration/response mode with 3-fold serial dilution steps starting at 1 μM.
Compounds in 100% DMSO were delivered into the kinase reaction mixture by acoustic liquid delivery technology (Echo550; nanoliter range) and incubated for 20 min at room temperature. 10 μM [^33P]-ATP (ATP: Sigma, Cat #: A7699; [^33P]-ATP: Hartmann Analytic, Cat #: SCF-301-12) was delivered into the reaction mixture to initiate the reaction. The mixture was incubated for 120 min at room temperature. Radioactivity was detected utilizing a proprietary filter-binding method. Kinase activity data were expressed as the percent remaining kinase activity in test samples compared to vehicle (DMSO) reactions. IC50 values were obtained using GraphPad Prism software.
Select compounds prepared as described above were assayed according to the biological procedures described herein.

T1 sequence (Q06187 whole entry C481S): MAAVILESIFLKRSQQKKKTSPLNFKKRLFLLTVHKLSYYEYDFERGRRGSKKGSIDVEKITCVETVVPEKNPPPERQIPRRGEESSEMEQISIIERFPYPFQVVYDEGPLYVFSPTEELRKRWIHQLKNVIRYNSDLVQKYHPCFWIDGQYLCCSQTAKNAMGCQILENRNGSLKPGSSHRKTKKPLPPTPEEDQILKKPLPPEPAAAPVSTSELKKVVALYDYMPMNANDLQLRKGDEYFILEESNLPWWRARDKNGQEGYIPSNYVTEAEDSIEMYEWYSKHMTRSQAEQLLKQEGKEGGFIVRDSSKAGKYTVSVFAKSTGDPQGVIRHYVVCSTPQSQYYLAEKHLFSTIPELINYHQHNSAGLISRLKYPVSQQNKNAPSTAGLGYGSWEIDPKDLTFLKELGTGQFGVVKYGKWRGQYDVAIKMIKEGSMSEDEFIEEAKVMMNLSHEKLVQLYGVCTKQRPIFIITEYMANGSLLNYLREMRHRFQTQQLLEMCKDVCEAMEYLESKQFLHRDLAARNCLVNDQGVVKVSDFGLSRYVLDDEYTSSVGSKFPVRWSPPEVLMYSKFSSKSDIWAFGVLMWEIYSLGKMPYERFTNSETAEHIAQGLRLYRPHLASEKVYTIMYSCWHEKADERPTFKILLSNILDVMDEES

A word on the AUC(0-inf): it is the area under the concentration-time curve extrapolated to infinity. As usually defined, the AUC(0-t) is exposure summed from dosing to a finite time, without extrapolation to infinity. Low readings indicate low exposure, high ones high exposure. Broadly, the clearance is a measure of how efficiently the substance is removed, as volume per time. A higher clearance goes with efficient removal. In general, half-life refers to the time in which the quantity being followed falls by half. A higher half-life goes with slow loss. One may read the Tmax as the time at which the peak concentration occurs. The term pIC50 denotes the IC50 on a negative log10 scale, so that one unit is a factor of ten. Read a high pIC50 as a small IC50. As for `CCOc1cnc2[nH]cc(C(=O)c3ccc(Oc4ccccc4F)cc3F)c2c1N[C@@H]1CC[C@@H](CO)OC1` [Example 71, (5-ethoxy-4-(((3R,6S)-6-(hydroxymethyl)tetrahydro-2H-pyran-3-yl)amino)-1H-pyrrolo[2,3-b]pyridin-3-yl)(2-fluoro-4-(2-fluorophenoxy)phenyl)methanone], in data set [1] (iv, 1 mg/kg), the AUC(0-inf) was found to be 3770 ng·h/mL, the AUC(0-t) came out at 3760 ng·h/mL, the clearance worked out at 4.7 mL/min/kg and the half-life was 3.07 h. Besides, in data set [1] (iv, 1 mg/kg), the Cmax came to 4360 ng/mL, the MRT last stood at 1.93 h and the Vd was found to be 0.541 L/kg. Further, in data set [1] (po, 5 mg/kg), the AUC(0-inf) amounted to 10100 ng·h/mL, the AUC(0-t) is 10100 ng·h/mL, the Tmax was determined as 4 h and the half-life is 2.74 h. In data set [1] (po, 5 mg/kg), the Cmax was 1680 ng/mL and the MRT last stood at 5.26 h. Moreover, the F in data set [1] (po 5 mg/kg vs iv 1 mg/kg) is on record as 53.7%. This molecule had a pIC50 in the data set on DOHH2 cells of 9.00. Also, the pIC50 on BTK (C481S) was 9.11.

Consider `O=C(c1ccc(Oc2ccccc2)cc1Cl)c1c[nH]c2nccc(N[C@@H]3CC[C@@H](CO)OC3)c12` [Example 2, (2-Chloro-4-phenoxyphenyl)(4-(((3R,6S)-6-(hydroxymethyl)tetrahydro-2H-pyran-3-yl)amino)-1H-pyrrolo[2,3-b]pyridin-3-yl)methanone], for which the pIC50 in the data set with DOHH2 cells is 7.59; at BTK (C481S), 8.65.

On to `CCOc1cnc2[nH]cc(C(=O)c3ccc(Oc4ccccc4)cc3C)c2c1N[C@@H]1CC[C@@H](CO)OC1` [Example 127, (5-ethoxy-4-(((3R,6S)-6-(hydroxymethyl)tetrahydro-2H-pyran-3-yl)amino)-1H-pyrrolo[2,3-b]pyridin-3-yl)(2-methyl-4-phenoxyphenyl)methanone], for which the pIC50 was 9.00 in the data set on DOHH2 cells and 9.02 at BTK (C481S).

Take `COc1cnc2[nH]cc(C(=O)c3ccc(Oc4ccccc4)cc3Cl)c2c1N[C@@H]1CC[C@@H](CO)OC1` [Example 27, (2-chloro-4-phenoxyphenyl)(4-(((3R,6S)-6-(hydroxymethyl)tetrahydro-2H-pyran-3-yl)amino)-5-methoxy-1H-pyrrolo[2,3-b]pyridin-3-yl)methanone]: the pIC50 with DOHH2 cells is 9.00; at BTK (C481S), 8.95.

Consider `CCOc1cnc2[nH]cc(C(=O)c3ccc(Oc4ccccc4F)cc3)c2c1N[C@@H]1CC[C@@H](CO)OC1` [Example 63, (5-ethoxy-4-(((3R,6S)-6-(hydroxymethyl)tetrahydro-2H-pyran-3-yl)amino)-1H-pyrrolo[2,3-b]pyridin-3-yl)(4-(2-fluorophenoxy)phenyl)methanone], for which the negative-log IC50 (pIC50) in the data set with DOHH2 cells and on BTK (C481S) was 9.00 in each case.

For `CCOc1cnc2[nH]cc(C(=O)c3ccc(Oc4ccccc4)cc3Cl)c2c1N[C@@H]1CC[C@@H](CO)OC1` [Example 128, (2-chloro-4-phenoxyphenyl)(5-ethoxy-4-(((3R,6S)-6-(hydroxymethyl)tetrahydro-2H-pyran-3-yl)amino)-1H-pyrrolo[2,3-b]pyridin-3-yl)methanone], the pIC50 in the data set on DOHH2 cells was 9.00; on BTK (C481S), 9.01.

As to `COc1cnc2[nH]cc(C(=O)c3ccc(Oc4ccccc4F)cc3F)c2c1N[C@@H]1CC[C@@H](CO)OC1` [Example 75, (2-fluoro-4-(2-fluorophenoxy)phenyl)(4-(((3R,6S)-6-(hydroxymethyl)tetrahydro-2H-pyran-3-yl)amino)-5-methoxy-1H-pyrrolo[2,3-b]pyridin-3-yl)methanone], in data set [1] (iv, 2 mg/kg), the AUC(0-inf) was 10200 ng·h/mL, the AUC(0-t) turned out to be 10100 ng·h/mL, the clearance was 3.33 mL/min/kg and the half-life is 2.56 h. Further, in data set [1] (iv, 2 mg/kg), the Cmax was 6350 ng/mL, the MRT last was found to be 2.43 h and the Vd is 0.489 L/kg. In addition, in data set [1] (po, 10 mg/kg), the AUC(0-inf) came out at 29000 ng·h/mL, the AUC(0-t) is 28900 ng·h/mL, the Tmax stood at 2.83 h and the half-life was 2.8 h. Also, in data set [1] (po, 10 mg/kg), the Cmax amounted to 4140 ng/mL and the MRT last came out at 5.58 h. In addition, in data set [1] (po 10 mg/kg vs iv 2 mg/kg), the F stood at 57.1%. The molecule also had a negative logarithm of the IC50 (pIC50) in the data set with DOHH2 cells of 9.00.

For `CCOc1cnc2[nH]cc(C(=O)c3ccc(Oc4ccccc4)cc3F)c2c1N[C@@H]1CC[C@@H](CO)OC1` [Example 176, (5-ethoxy-4-(((3R,6S)-6-(hydroxymethyl)tetrahydro-2H-pyran-3-yl)amino)-1H-pyrrolo[2,3-b]pyridin-3-yl)(2-fluoro-4-phenoxyphenyl)methanone], the pIC50 in the data set with DOHH2 cells is 9.00; on BTK (C481S), 9.34.
